Assay results reported in patent US12084479B2, “Modified antimicrobial peptide derived from an arginine-rich domain” (priority 2016, dated 2024).
≈ marks a conversion by molar mass, not a printed value. Where two headings read alike, the source gives them in different places. Where a SMILES comes first, the peptide text is derived from it. Where no end group is shown, it is not given here. [ ]: non-standard residue; d: D form.

Experiments:
[1] = system: P. aeruginosa; type: cell-based, Pseudomonas aeruginosa
Method: (§1) The antimicrobial activities of HBcARD peptides were tested using a number of bacterial strains, including Pseudomonas aeruginosa Migula strains (ATCC 27853, ampicillin-resistant and ATCC 9027, ampicillin-resistant), Klebsiella pneumoniae strain (ATCC 13884), Shigella dysenteriae Xen27 (Caliper Co.), Escherichia coli strain (ATCC 25922), Staphylococcus aureus subsp. strains (ATCC 25923, methicillin-resistantATCC 29213, methicillin-resistant and ATCC 19636, methicillin-resistant) and Acinetobacter baumannii strains (ATCC 17978, ATCC 17978 CR, ATCC19606, ATCC 19606 CR, TCGH 45530 and TCGH 46709). Clinical isolates TCGH 45530 and TCGH 46709 were obtained from Tzu-Chi Buddhist General Hospital (TCGH) in Taiwan, and were identified using the Vitek system (Biomerieux Vitek, Inc., Hazelwood, MO, USA). See Chang et al. (2012), J Microbiol Immunol Infect 45:37-42 doi:10.1016/j.jmii.2011.09.019.
(§2) L- and D-HBcARD peptides were purchased from Yao-Hong Biotechnology Inc. (Taipei, Taiwan). Antimicrobial activity was determined as described. See, Chen et al., 2013. Briefly, bacteria were grown in MH broth (Difco) to mid-logarithmic phase at 37° C., and were diluted to 10^6 CFU (colony formation unit)/ml in phosphate buffer (10 mM sodium phosphate and 50 mM sodium chloride, pH 7.2). Peptides were serially diluted in the same buffer. Fifty microliters (μl) of bacteria were mixed with fifty μl of peptides at varying concentrations, followed by incubation at 37° C. for 3 hours without shaking. At the end of incubation, bacteria were placed on Mueller-Hinton broth agar plates, and allowed to grow at 37° C. overnight for measurement of minimal bactericidal concentration (MBC).
(§3) All peptides were tested in triplicate.

[2] = system: E. coli; type: cell-based, Escherichia coli
Method: as §1, §2, §3

[3] = system: A. baumannii; type: cell-based, Acinetobacter baumannii
Method: as §1, §2, §3

[4] = system: S. dysenteriae Xen27; type: cell-based, Shigella dysenteriae
Method: as §1
L- and D-HBcARD peptides were purchased from Yao-Hong Biotechnology Inc. (Taipei, Taiwan). Antimicrobial activity was determined as described. See, Chen et al., 2013. Briefly, bacteria were grown in MH broth (Difco) to mid-logarithmic phase at 37° C., and were diluted to 10^6 CFU (colony formation unit)/ml in phosphate buffer (10 mM sodium phosphate and 50 mM sodium chloride, pH 7.2). Peptides were serially diluted in the same buffer. […]

[5] = system: S. aureus; type: cell-based, Staphylococcus aureus
Method: as §1, §2, §3

[6] = Protease resistance assay (serum stability), SDS-PAGE and Green Angel staining; type: in vitro ADME; conditions: 5% bovine serum, 37° C.
Method: To compare the stability of the 37-mer L- and D-HBcARD peptides against serum protease degradation, we performed a protease resistance assay. After incubation with 5% bovine serum at 37° C. for 3 hours, more than 80% of L-HBcARD peptide was no longer detectable by staining with Green Angel on SDS-PAGE. In contrast, the signal intensity of the D-HBcARD peptide was not reduced under the same condition.
L- and D-HBcARD peptides (0.5 nmol) were mixed with MBC buffer in the presence or absence of 5% serum collected from bovine, mouse and human origins. After incubation at 37° C. for 3 hours, the amounts of peptides surviving the protease digestion were determined by SDS-PAGE electrophoresis and staining with Green Angel. The images were quantified using image J software and the intensities were normalized with the no serum control. To investigate the effect of serum on the antimicrobial activity of HBcARD peptides, L- and D-HBcARD peptides at their respective MBC concentrations were incubated with S. aureus ATCC19636 strain (10^6 CFU/ml) at 37° C. for three hours. Bacteria were plated on MH agar and the antimicrobial activity was determined by colony formation.

[7] = system: human red blood cells (hRBCs); test: Hemolytic activity; type: cell-based; conditions: up to 460 mg/L, 37° C., one hour
Method: In the hemolysis assay, human RBCs were incubated with serially-diluted doses (0 to 460 mg/L) of D-HBcARD, L-HBcARD, or melittin, at 37° C. for one hour.
The hemolytic activities of peptides were determined by hemolysis against human red blood cells (hRBCs). Human blood was obtained in EDTA-containing tube and was centrifuged at 450 g for 10 min. The pellet was washed three times with PBS buffer, and a solution of 10% hRBCs was prepared. hRBCs solution was mixed with serial dilutions of peptides in PBS buffer, and the reaction mixtures were incubated for 1 h at 37° C. After centrifugation at 450 g for 10 min, the percentage of hemolysis was determined by measuring the absorbance at the wavelength of 405 nm of the supernatant. Blank and 100% hemolysis were determined in PBS buffer and in the presence of 1% Triton X-100, respectively.

[8] = system: S. aureus ATCC 19636; test: Immunogenicity: sepsis model in peptide-immunized mice; type: in vivo, ICR mice; conditions: immunized three times with 5 mg/kg peptide
Method: FIG. 4 is a set of graphs showing comparison of in vivo protection activities between L- and D-form HBcARD peptides in a mouse sepsis model infected with S. aureus. (A) Three week-old ICR mice were inoculated with S. aureus (4×10^6 CFU/mouse) and i.p. injected with PBS, L-HBcARD, or D-HBcARD at 2 hours post-inoculation. Each group contained ten mice. (B) and (C) Three week-old ICR mice were immunized with L- and D-HBcARD peptides (5 mg/kg), respectively, at day 0, 3 and 6. On day 14, the mice were inoculated with S. aureus (4×10^6 CFU/mouse) and i.p. injected with PBS, L-HBcARD or D-HBcARD (10 mg/kg) at 1 hour post-inoculation, respectively. Another group of mice were treated with PBS in parallel as a control. Each group of animals contained five mice. *P<0.05; ***P<0.0001; ns, no significance.
To investigate whether repeated treatments with the 37-mer HBcARD peptides may compromise the efficacy by inducing neutralization antibody in vivo, we immunized 3-week old mice three times with L- and D-HBcARD peptides, respectively, prior to bacterial infection. […]
To investigate the potential immunogenicity of HBcARD peptides, we determined the in vivo antimicrobial activity of HBcARD peptide in peptide-immunized mice. […] Mortality was monitored daily for 7 days following the bacterial inoculation.

[9] = system: K. pneumoniae; type: cell-based, Klebsiella pneumoniae
Method: as §1, §2, §3

[10] = system: colistin-resistant A. baumannii TCGH 46709; test: Mouse lung infection model, intra-tracheal inoculation; type: in vivo, BALB/c mice; conditions: 5 mg/kg/day ip.
Method: FIG. 6 is a graph showing in vivo protection efficacies of 150-177C and 150-177Q peptides in a BALB/c mouse lung infection model. Colistin-resistant A. baumannii was inoculated via intra-tracheal route.
BALB/c mice (n=8/group) were intra-tracheally inoculated with colistin-resistant A. baumannii TCGH 46709 (3.4×10^8 cfu/mouse). These lung-infected mice were ip. treated with colistin (5 mg/kg/day) or D-150-177C (5 and 10 mg/kg/day), respectively.

Compound	Minimal bactericidal concentration [1] [µg/mL]	Minimal bactericidal concentration [2] [µg/mL]	MBC [3] [µg/mL]	Minimal bactericidal concentration ([4]; S. dysenteriae Xen27) [µg/mL]	MBC [5] [µg/mL]	signal intensity of the peptide after serum incubation ([6]; 3 hours)	hemolytic activity [7]	neutralization activity induced by prior immunizations [8]	Minimal bactericidal concentration [9] [µg/mL]	Minimal bactericidal concentration [4] [µg/mL]	Minimal bactericidal concentration [5] [µg/mL]	metabolised at 3 h ([6]; read-out: peptide no longer detectable by staining with Green Angel on SDS-PAGE) [%]	survival outcome [10]
CC(C)[C@H](NC(=O)[C@@H](NC(=O)[C@@H](N)[C@@H](C)O)C(C)C)C(=O)N[C@H](CCCNC(=N)N)C(=O)N[C@H](CCCNC(=N)N)C(=O)N[C@H](CCCNC(=N)N)C(=O)NCC(=O)N[C@H](CCCNC(=N)N)C(=O)N[C@@H](CO)C(=O)N1CCC[C@H]1C(=O)N[C@H](CCCNC(=N)N)C(=O)N[C@H](CCCNC(=N)N)C(=O)N[C@H](CCCNC(=N)N)C(=O)N[C@H](C(=O)N1CCC[C@H]1C(=O)N[C@@H](CO)C(=O)N1CCC[C@H]1C(=O)N[C@H](CCCNC(=N)N)C(=O)N[C@H](CCCNC(=N)N)C(=O)N[C@H](CCCNC(=N)N)C(=O)N[C@H](CCCNC(=N)N)C(=O)N[C@@H](CO)C(=O)N[C@@H](CCC(N)=O)C(=O)N[C@@H](CO)C(=O)N1CCC[C@H]1C(=O)N[C@H](CCCNC(=N)N)C(=O)N[C@H](CCCNC(=N)N)C(=O)N[C@H](CCCNC(=N)N)C(=O)N[C@H](CCCNC(=N)N)C(=O)N[C@@H](CO)C(=O)N[C@@H](CCC(N)=O)C(=O)N[C@@H](CO)C(=O)N[C@H](CCCNC(=N)N)C(=O)N[C@@H](CCC(=O)O)C(=O)N[C@@H](CO)C(=O)N[C@@H](CCC(N)=O)C(=O)N[C@@H](CS)C(=O)O)[C@@H](C)O [D-HBcARD, TVVrrrGrSPrrrTPSPrrrrSQSPrrrrSQSrESQC] (H-TVV[dR][dR][dR]G[dR]SP[dR][dR][dR]TPSP[dR][dR][dR][dR]SQSP[dR][dR][dR][dR]SQS[dR]ESQC-OH; N-terminus and C-terminus assumed)	4.6 (≈ 1 µM)	73.6 (≈ 16 µM)	2.3 to 4.6	73.6 (≈ 16 µM)	4.6 to 9.2	not reduced	no hemolytic activity	no neutralization activity					
TVVRRRGRSPRRRTPSPRRRRSQSPRRRRSQSRESQC [L-HBcARD]		18.4					no hemolytic activity	no neutralization activity	9.2	18.4	18.4	> 80	
colistin													died at 60 hours post-inoculation
